Test results from patent US5869450A, “Anti-inflammatory compositions and method with corticotropin-releasing factor analogs” (priority 1996, dated 1999).
Non-standard residues stand in square brackets, D forms with d. No end group written: not given here.

How the values were obtained:
CRF-R1 = biological target: T1, CRF-R1 (Rattus norvegicus, UniProt P35353); assay: cAMP stimulation in 293-EBNA cells transfected with CRF-R1 (PC-CRF receptor); assay type: cell-based; details: for EC50: Table 2, cAMP, 293-EBNA stable transfectants
T1 construct: Cells were transfected with the full-length cDNA of these receptors; expressed in transfected cells
T1 sequence (P35353 24-415): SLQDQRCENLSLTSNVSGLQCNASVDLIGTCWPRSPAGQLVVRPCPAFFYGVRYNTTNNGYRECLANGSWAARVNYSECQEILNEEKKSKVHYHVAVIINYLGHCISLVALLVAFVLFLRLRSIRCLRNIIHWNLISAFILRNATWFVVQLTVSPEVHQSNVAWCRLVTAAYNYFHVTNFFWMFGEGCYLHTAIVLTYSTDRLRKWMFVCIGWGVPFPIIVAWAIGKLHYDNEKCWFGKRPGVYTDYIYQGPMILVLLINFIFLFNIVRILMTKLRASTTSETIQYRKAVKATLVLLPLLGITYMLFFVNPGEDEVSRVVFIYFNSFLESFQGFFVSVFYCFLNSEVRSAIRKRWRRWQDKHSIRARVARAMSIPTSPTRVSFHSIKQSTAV
Experimental: These were the pituitary-central nervous system (PC)-CRF receptor and the heart muscle (HM)-CRF receptor, also called CRF-R1 and CRF-R2β. Cells were transfected with the full-length cDNA of these receptors. […] Stable transfectants were incubated with 50 μM 3-isobutylmethyl-1-methylxanthine for 20 minutes at 37° C. and then peptides were added and incubated for another 20 minutes at 37° C. Levels of cAMP were assayed in sextuplicate. Cells transfected with these CRF receptors are sensitive to the cAMP stimulatory effects of CRF.

CRF-R2β = biological target: T2, CRF-R2β (Mus musculus, UniProt Q60748); assay: cAMP stimulation in 293-EBNA cells transfected with CRF-R2β (HM-CRF receptor); assay type: cell-based; details: Table 2; for EC50: cAMP, 293-EBNA stable transfectants
T2 construct: Cells were transfected with the full-length cDNA of these receptors; expressed in transfected cells
Experimental: For another assay, two types of cloned CRF receptors were assessed for their responses to the CRF analogs. These were the pituitary-central nervous system (PC)-CRF receptor and the heart muscle (HM)-CRF receptor, also called CRF-R1 and CRF-R2β. Cells were transfected with the full-length cDNA of these receptors. These procedures were performed according to Chang et al., Neuron, 11, pp. 1187-1195 (1993) and Kishimoto et al., Proc. Natl. Acad. Sci. USA, 92, pp. 1108 (1995). cDNAS for the PC-CRF receptor and the HM-CRF receptor were subcloned into expression vector pCEP4 and transfected into 293-EBNA cells. Stable transfectants were incubated with 50 μM 3-isobutylmethyl-1-methylxanthine for 20 minutes at 37° C. and then peptides were added and incubated for another 20 minutes at 37° C. Levels of cAMP were assayed in sextuplicate. Cells transfected with these CRF receptors are sensitive to the cAMP stimulatory effects of CRF. […] As noted previously, the anti-inflammatory potency of these two analogs were also identical.

ACTH release = assay: Relative ACTH-releasing potency of singly D-substituted ovine CRF analogs (FIG. 1); details: relative to unmodified oCRF
From the text: Turning to FIG. 1, 37 different ovine CRF analogs were singly substituted with a D-amino acid and screened for suppression of heat-induced edema and relative ACTH-releasing potency. […]

heat-induced edema [1] = details: intravenous; Wei and Kiang 1989; cited from earlier work
heat-induced edema [2] = assay: Suppression of heat-induced edema in the anesthetized rat hind paw; assay type: in vivo
Experimental: The index of anti-inflammatory activity was measured as suppression by heat-induced edema. Briefly, male Sprague-Dawley rats weighing 200-250 g were anesthetized with sodium pentobarbital (60 mg/kg i.p.). Saline (1 ml/kg body weight) or test substances dissolved in saline were injected i.v. via a branch of the femoral vein. Ten minutes after injection, thermal stimulus was applied to the hind paw by immersion of the foot, up to the ankle joint, in 58° C. water for 1 minute. Thirty minutes after heat exposure, animals were killed by overdose with concentrated sodium pentobarbital and both hind paws were removed at the ankle joint and weighed. The degree of heat-induced edema was estimated as the difference between the weights of the heated and unheated paws divided by the weight of the unheated paw. Four to six analogs (N≥3 animals per dose level with 3 to 4 dose levels per analog) were tested on each occasion with concurrent saline controls. The median effective dose (ED50) was calculated according to the method of Litchfield and Wilcoxon (1949).

CRF binding protein = biological target: T3, CRF binding protein (Homo sapiens, UniProt P24387); assay: Complex formation of I125-labelled peptide with CRF-binding protein, Sephadex G100 column; details: radio-iodinated peptide, Sephadex G100 fractions
T3 sequence (P24387 25-322): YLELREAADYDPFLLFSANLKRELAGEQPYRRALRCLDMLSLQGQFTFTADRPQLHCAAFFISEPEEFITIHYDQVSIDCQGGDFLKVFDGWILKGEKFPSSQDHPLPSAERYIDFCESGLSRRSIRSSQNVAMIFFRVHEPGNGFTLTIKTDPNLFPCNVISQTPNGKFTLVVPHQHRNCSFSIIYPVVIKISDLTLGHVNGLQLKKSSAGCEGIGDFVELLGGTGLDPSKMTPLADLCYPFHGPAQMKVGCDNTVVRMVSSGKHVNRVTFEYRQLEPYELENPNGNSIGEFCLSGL
Experimental: Both peptides were radio-iodinated with I^125, incubated with CRF-binding protein, placed on a Sephadex G100 column and the fractions collected.

rat pituitary cells = assay: In vitro ACTH release from rat pituitary segments, radioimmunoassay (FIG. 2); assay type: cell-based; details: ir-ACTH
Experimental: In determining ACTH release, an useful assay system to measure ACTH release by an in vitro assay is where basal or CRF-induced ACTH release is measured in the manner described by Vale et al. ("Assay of Corticotropin Releasing Factor," Methods in Enzymology: Neuroendocrine Peptides, 103, pp. 565-577, Conn. Ed., Academic Press, New York, 1983). The results shown in FIG. 2 were obtained by incubating the test peptides with segments of rat pituitary cells. After incubation the ACTH in the fluid bathing these segments were measured by radioimmunoassay (ir-ACTH) in units of pg of ACTH per mg of pituitary tissue. […] After the addition of CRF, this is increased in a dose-dependent relationship. […] However, the anti-edema potencies between these two peptides were identical.

[3] = i.v. 10 min before 58° C. water for 1 minute, paw weight 30 min after heat, 95% CL in brackets

T2 sequence (Q60748 1-431 isoform Q60748-2): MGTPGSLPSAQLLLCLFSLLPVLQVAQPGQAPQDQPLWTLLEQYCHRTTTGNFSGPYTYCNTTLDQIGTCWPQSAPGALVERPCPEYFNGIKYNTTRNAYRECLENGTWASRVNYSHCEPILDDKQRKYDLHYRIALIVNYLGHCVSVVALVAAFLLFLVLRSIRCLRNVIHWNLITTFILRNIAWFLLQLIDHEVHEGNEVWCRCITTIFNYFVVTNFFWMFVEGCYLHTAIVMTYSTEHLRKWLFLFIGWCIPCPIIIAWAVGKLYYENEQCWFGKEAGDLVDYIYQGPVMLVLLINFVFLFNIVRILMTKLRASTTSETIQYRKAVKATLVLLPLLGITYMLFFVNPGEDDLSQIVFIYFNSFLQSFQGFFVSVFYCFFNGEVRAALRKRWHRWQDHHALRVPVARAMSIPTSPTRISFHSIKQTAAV

CC[C@H](C)[C@H](NC(=O)[C@H](CO)NC(=O)[C@H](CC(C)C)NC(=O)[C@H]1CCCN1C(=O)[C@@H]1CCCN1C(=O)[C@H](CC(=O)O)NC(=O)[C@@H](N)CC(=O)O)C(=O)N[C@@H](CC(=O)O)C(=O)N[C@@H](CC(C)C)C(=O)N[C@H](C(=O)N[C@@H](Cc1ccccc1)C(=O)N[C@@H](Cc1c[nH]cn1)C(=O)N[C@@H](CC(C)C)C(=O)N[C@@H](CC(C)C)C(=O)N[C@@H](CCCNC(=N)N)C(=O)N[C@H](C(=O)N[C@@H](CC(C)C)C(=O)N[C@@H](CC(C)C)C(=O)N[C@@H](CCC(=O)O)C(=O)N[C@@H](CC(C)C)C(=O)N[C@@H](C)C(=O)N[C@@H](CCCNC(=N)N)C(=O)N[C@H](C(=O)N[C@@H](CCC(N)=O)C(=O)N[C@@H](CO)C(=O)N[C@@H](CCC(N)=O)C(=O)N[C@@H](CCCNC(=N)N)C(=O)N[C@@H](CCC(=O)O)C(=O)N[C@@H](CCCNC(=N)N)C(=O)N[C@@H](C)C(=O)N[C@@H](CCC(=O)O)C(=O)N[C@@H](CCC(N)=O)C(=O)N[C@@H](CC(N)=O)C(=O)N[C@@H](CCCNC(=N)N)C(=O)N[C@H](C(=O)N[C@H](C(=O)N[C@@H](Cc1ccccc1)C(=O)N[C@@H](CC(=O)O)C(=O)N[C@@H](CO)C(=O)N[C@H](C(N)=O)C(C)C)[C@@H](C)CC)[C@@H](C)CC)[C@@H](C)O)[C@@H](C)O)[C@@H](C)O [[D-Pro^4]urocortin (rat)]
EC50 (CRF-R1): 0.2 nM | Increment in Selectivity (CRF-R2β; D-substituted analog versus parent peptide): 2.5 fold | EC50 (CRF-R2β): 1 nM

CC[C@H](C)[C@H](NC(=O)[C@H](CC(=O)O)NC(=O)[C@H](CC(C)C)NC(=O)[C@H](CC(C)C)NC(=O)[C@H](CCCCN)NC(=O)[C@H](CCCNC(=N)N)NC(=O)[C@H](CC(N)=O)NC(=O)[C@H](CO)NC(=O)[C@H](Cc1c[nH]cn1)NC(=O)[C@H](C)NC(=O)[C@H](CCC(N)=O)NC(=O)[C@H](CCC(N)=O)NC(=O)[C@H](C)NC(=O)[C@H](CC(C)C)NC(=O)[C@H](CCC(N)=O)NC(=O)[C@H](CC(=O)O)NC(=O)[C@H](C)NC(=O)[C@H](CCCCN)NC(=O)[C@@H](NC(=O)[C@H](CCSC)NC(=O)[C@H](CCC(=O)O)NC(=O)[C@H](CC(C)C)NC(=O)[C@@H](NC(=O)[C@H](CCC(=O)O)NC(=O)[C@H](CCCNC(=N)N)NC(=O)[C@H](CC(C)C)NC(=O)[C@H](CC(C)C)NC(=O)[C@H](Cc1c[nH]cn1)NC(=O)[C@H](Cc1ccccc1)NC(=O)[C@@H](NC(=O)[C@H](CC(C)C)NC(=O)[C@H](CC(=O)O)NC(=O)[C@H](CC(C)C)NC(=O)[C@H](CO)NC(=O)[C@@H](NC(=O)[C@H]1CCCN1C(=O)[C@@H]1CCCN1C(=O)[C@H](CCC(=O)O)NC(=O)[C@H](CCC(N)=O)NC(=O)[C@@H](N)CO)[C@@H](C)CC)[C@@H](C)O)C(C)C)[C@@H](C)O)C(=O)N[C@@H](C)C(N)=O [[D-Pro^5]oCRF]
ACTH-releasing potency retained relative to the unmodified peptide (ACTH release): 8%

CC[C@H](C)[C@H](NC(=O)[C@@H](NC(=O)[C@H](CC(=O)O)NC(=O)[C@H](CC(C)C)NC(=O)[C@H](CC(C)C)NC(=O)[C@H](CC(C)C)NC(=O)[C@H](CCCNC(=N)N)NC(=O)[C@H](CC(N)=O)NC(=O)[C@H](CC(N)=O)NC(=O)[C@H](C)NC(=O)[C@H](C)NC(=O)[C@H](CCC(N)=O)NC(=O)[C@H](CCC(N)=O)NC(=O)[C@H](CCCCN)NC(=O)[C@H](CCC(=O)O)NC(=O)[C@H](CCCCN)NC(=O)[C@H](CCC(=O)O)NC(=O)[C@H](CCC(N)=O)NC(=O)[C@H](CCCCN)NC(=O)[C@H](CCC(=O)O)NC(=O)[C@@H](NC(=O)[C@H](CCC(=O)O)NC(=O)[C@@H](NC(=O)[C@H](CCSC)NC(=O)[C@H](CCCCN)NC(=O)[C@H](CCCNC(=N)N)NC(=O)[C@H](CC(C)C)NC(=O)[C@H](CC(C)C)NC(=O)[C@H](CCC(=O)O)NC(=O)[C@H](CC(C)C)NC(=O)[C@H](CO)NC(=O)[C@H](CC(C)C)NC(=O)[C@H](CC(=O)O)NC(=O)[C@@H](NC(=O)[C@H](CO)NC(=O)[C@@H](NC(=O)[C@@H]1CCCN1C(=O)[C@@H]1CCCN1C(=O)CNC(=O)[C@@H]1CCC(=O)N1)[C@@H](C)CC)[C@@H](C)CC)[C@@H](C)CC)[C@@H](C)CC)[C@@H](C)O)C(N)=O [sauvagine]
ED50 for suppression of heat-induced edema in the rat (heat-induced edema [1]): 0.44 nmol/kg

CC[C@H](C)[C@H](NC(=O)[C@H](CO)NC(=O)[C@H](CC(C)C)NC(=O)[C@@H]1CCCN1C(=O)[C@@H]1CCCN1C(=O)[C@H](CC(=O)O)NC(=O)[C@@H](N)CC(=O)O)C(=O)N[C@@H](CC(=O)O)C(=O)N[C@@H](CC(C)C)C(=O)N[C@H](C(=O)N[C@@H](Cc1ccccc1)C(=O)N[C@@H](Cc1c[nH]cn1)C(=O)N[C@@H](CC(C)C)C(=O)N[C@@H](CC(C)C)C(=O)N[C@@H](CCCNC(=N)N)C(=O)N[C@H](C(=O)N[C@@H](CC(C)C)C(=O)N[C@@H](CC(C)C)C(=O)N[C@@H](CCC(=O)O)C(=O)N[C@@H](CC(C)C)C(=O)N[C@@H](C)C(=O)N[C@@H](CCCNC(=N)N)C(=O)N[C@H](C(=O)N[C@@H](CCC(N)=O)C(=O)N[C@@H](CO)C(=O)N[C@@H](CCC(N)=O)C(=O)N[C@@H](CCCNC(=N)N)C(=O)N[C@@H](CCC(=O)O)C(=O)N[C@@H](CCCNC(=N)N)C(=O)N[C@@H](C)C(=O)N[C@@H](CCC(=O)O)C(=O)N[C@@H](CCC(N)=O)C(=O)N[C@@H](CC(N)=O)C(=O)N[C@@H](CCCNC(=N)N)C(=O)N[C@H](C(=O)N[C@H](C(=O)N[C@@H](Cc1ccccc1)C(=O)N[C@@H](CC(=O)O)C(=O)N[C@@H](CO)C(=O)N[C@H](C(N)=O)C(C)C)[C@@H](C)CC)[C@@H](C)CC)[C@@H](C)O)[C@@H](C)O)[C@@H](C)O [urocortin (rat), reference compound]
EC50 (CRF-R1): 0.15 nM | EC50 (CRF-R2β): 0.32 nM

NDDPPISIDLTFHLLRNMIEMARIENEREQAGLNRKYLDEV-NH2 (C-terminus assumed) [white sucker fish urotensin I]
ED50 for suppression of heat-induced edema in the rat (heat-induced edema [1]): 1.5 nmol/kg

NDDP[dP]ISIDLTFHLLRNMIEMARIENEREQAGLNRKYLDEV-NH2 [[D-Pro^5]white sucker fish urotensin I]
ED50 (95% CL) μg/kg i.v. (heat-induced edema [2]; [3]): 9 (5-17) μg/kg

SEEP[dP]ISLDLTFHLLREVLEMTKADQLAQQAHSNRKLMEII-NH2 [[D-Pro^5, Thr^22, Lys^23, Asp^25]h/rCRF]
complex formation with CRF-binding protein (CRF binding protein): did not form a complex with binding protein | ED50 (95% CL) μg/kg i.v. (heat-induced edema [2]; Table 3, i.v.): 19 µg/kg | ED50 (95% CL) μg/kg i.v. (heat-induced edema [2]; [3]): 19 (9-38) μg/kg

[D-Pro^5 ] human/rat CRF [[D-Pro^5]h/rCRF]
change of potency for CRF-R1 after replacement of Pro5 by D-Pro (CRF-R1; FIG. 3, versus h/rCRF): reduced by about six-fold | complex formation with CRF-binding protein (CRF binding protein): formed a complex with binding protein | decrease of potency for ACTH release versus CRF (rat pituitary cells): at least 10 fold | ED50 (95% CL) μg/kg i.v. (heat-induced edema [2]; Table 3, i.v.): 10 µg/kg | ED50 (95% CL) μg/kg i.v. (heat-induced edema [2]; [3]): 10 (3-33) μg/kg
